This test addresses T1, Sortase A (SrtA) (Staphylococcus aureus, UniProt Q2FV99).
T1 construct: recombinant SrtA enzyme (BPS Bioscience)
Briefly: fluorescence cleavage assay of Abz-LPETG-K(Dnp)-NH2 with recombinant SrtA. Format: biochemical.

The source of these data is article PMC11940505, “Antivirulence Properties of Kuraridin Against Methicillin-Resistant Staphylococcus aureus (MRSA)” (Biomedicines, 2025).

T1 sequence (Q2FV99 whole entry): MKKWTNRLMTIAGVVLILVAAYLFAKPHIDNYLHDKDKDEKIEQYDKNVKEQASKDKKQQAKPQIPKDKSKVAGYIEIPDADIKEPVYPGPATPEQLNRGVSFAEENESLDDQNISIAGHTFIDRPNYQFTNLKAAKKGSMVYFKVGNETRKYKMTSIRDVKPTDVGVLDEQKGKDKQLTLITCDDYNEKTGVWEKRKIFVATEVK

`C=C(C)[C@H](CC=C(C)C)Cc1c(O)cc(OC)c(C(=O)/C=C/c2ccc(O)cc2O)c1O` [Kuraridin, (E)-1-[2,4-dihydroxy-6-methoxy-3-(5-methyl-2-prop-1-en-2-ylhex-4-enyl)phenyl]-3-(2,4-dihydroxyphenyl)prop-2-en-1-one]: the “fluorescence cleavage assay of Abz-LPETG-K(Dnp)-NH2 with recombinant SrtA” value is “LogIC50 1.699 ± 0.055”.
